Experimental data taken from patent publication US10653146B2, “Microbiocidal oxadiazole derivatives” (SYNGENTA PARTICIPATIONS AG, priority 2016, dated 2020).

Columns and labels:
[1] = test system: Puccinia recondite f. Sp. Tritici; assay: Fungicidal activity against Puccinia recondite f. sp. tritici / wheat / leaf disc curative (brown rust); assay type: in vivo; conditions: foliar, 200 ppm in the applied formulation, wheat leaf segments cv. Kanzler, applied 1 day after inoculation, assessed 6 to 8 days after application, read-out: disease control compared to untreated control leaf disks
Method: (§1) Leaf disks or leaf segments of various plant species are cut from plants grown in a greenhouse. The cut leaf disks or segments are placed in multiwell plates (24-well format) onto water agar. The leaf disks are sprayed with a test solution before (preventative) or after (curative) inoculation. Compounds to be tested are prepared as DMSO solutions (max. 10 mg/ml) which are diluted to the appropriate concentration with 0.025% Tween20 just before spraying. The inoculated leaf disks or segments are incubated under defined conditions (temperature, relative humidity, light, etc.) according to the respective test system. A single evaluation of disease level is carried out 3 to 14 days after inoculation, depending on the pathosystem. Percent disease control relative to the untreated check leaf disks or segments is then calculated.
Wheat leaf segments cv. Kanzler are placed on agar in multiwell plates (24-well format). The leaf segments are then inoculated with a spore suspension of the fungus. Plates were stored in darkness at 19° C. and 75% relative humidity. The formulated test compound diluted in water was applied 1 day after inoculation. The leaf segments were incubated at 19° C. and 75% relative humidity under a light regime of 12 hours light/12 hours darkness in a climate cabinet and the activity of a compound was assessed as percent disease control compared to untreated when an appropriate level of disease damage appears in untreated check leaf segments (6 to 8 days after application).
(§2) The following compounds at 200 ppm in the applied formulation give at least 80% disease control in this test when compared to untreated control leaf disks under the same conditions, which show extensive disease development.

Phakopsora pachyrhizi = assay: Fungicidal activity against Phakopsora pachyrhizi / soybean / leaf disc preventative (Asian soybean rust); assay type: in vivo; conditions: foliar, 200 ppm in the applied formulation, soybean leaf disks, inoculated one day after application, assessed 12 to 14 days after application, read-out: disease control compared to untreated control leaf disks
Method: as §1
Soybean leaf disks are placed on water agar in multiwell plates (24-well format) and sprayed with the formulated test compound diluted in water. One day after application leaf discs are inoculated by spraying a spore suspension on the lower leaf surface. After an incubation period in a climate cabinet of 24-36 hours in darkness at 20° C. and 75% rh leaf disc are kept at 20° C. with 12 h light/day and 75% rh. The activity of a compound is assessed as percent disease control compared to untreated when an appropriate level of disease damage appears in untreated check leaf disks (12 to 14 days after application).
as §2

[2] = test system: Glomerella lagenarium (Colletotrichum lagenarium); assay: Fungicidal activity against Glomerella lagenarium (Colletotrichum lagenarium) liquid culture / cucumber / preventative (anthracnose); assay type: cell-based; conditions: Colletotrichum orbiculare; 20 ppm in the applied formulation; liquid culture in PDB, 24° C.; 3 to 4 days after application; read-out: disease control compared to untreated control (inhibition of growth measured photometrically)
Method: Mycelia fragments or conidia suspensions of a fungus prepared either freshly from liquid cultures of the fungus or from cryogenic storage, are directly mixed into nutrient broth. DMSO solutions of the test compound (max. 10 mg/ml) are diluted with 0.025% Tween20 by a factor of 50 and 10 μl of this solution is pipetted into a microtiter plate (96-well format). The nutrient broth containing the fungal spores/mycelia fragments is then added to give an end concentration of the tested compound. The test plates are incubated in the dark at 24° C. and 96% relative humidity. The inhibition of fungal growth is determined photometrically after 2 to 7 days, depending on the pathosystem, and percent antifungal activity relative to the untreated check is calculated.
Conidia of the fungus from cryogenic storage are directly mixed into nutrient broth (PDB—potato dextrose broth). After placing a (DMSO) solution of test compound into a microtiter plate (96-well format), the nutrient broth containing the fungal spores is added. The test plates are incubated at 24° C. and the inhibition of growth is measured photometrically 3 to 4 days after application.
The following compounds at 20 ppm in the applied formulation give at least 80% disease control in this test when compared to untreated control under the same conditions, which show extensive disease development.

[3] = test system: Puccinia recondita f. Sp. Tritici; assay: Fungicidal activity against Puccinia recondita f. sp. tritici / wheat / leaf disc preventative (brown rust); assay type: in vivo; conditions: foliar, 200 ppm in the applied formulation, wheat leaf segments cv. Kanzler, inoculated 1 day after application, assessed 7 to 9 days after application, read-out: disease control compared to untreated control leaf disks
Method: as §1, with “calculated. Wheat leaf segments cv. Kanzler were placed on agar in multiwell plates (24-well format) and sprayed with the formulated test compound diluted in water. The leaf disks were inoculated with a spore suspension of the fungus 1 day after application. The inoculated leaf segments were incubated at 19° C. and 75% relative humidity (rh) under a light regime of 12 hours light/12 hours darkness in a climate cabinet and the activity of a compound was assessed as percent disease control compared to untreated when an appropriate level of disease damage appears in untreated check leaf segments (7 to 9 days after application). The following compounds at 200 ppm in the applied formulation give at least 80% disease control in this test when compared to untreated control leaf disks under the same conditions, which show extensive disease development.” for “calculated.”

SMILES	melting point [°C]	pest or weed control at 200 ppm [1] [%]	pest or weed control at 200 ppm (Phakopsora pachyrhizi) [%]	inhibition at 20 ppm [2] [%]	pest or weed control at 200 ppm [3] [%]
O=C(NCCF)C(=O)c1ccc(-c2noc(C(F)(F)F)n2)cc1 [Compound 1.31, N-(2-fluoroethyl)-2-oxo-2-[4-[5-(trifluoromethyl)-1,2,4-oxadiazol-3-yl]phenyl]acetamide]	94 to 100	≥ 80	≥ 80	≥ 80	≥ 80
O=C(NC1CCCC1(F)F)C(=O)c1ccc(-c2noc(C(F)(F)F)n2)cc1 (stereo not shown) [Compound 1.34, N-(2,2-difluoro-cyclopentyl)-2-oxo-2-[4-[5-(trifluoromethyl)-1,2,4-oxadiazol-3-yl]phenyl]acetamide]	64 to 70	≥ 80	≥ 80	≥ 80	≥ 80

Continued, in another order:

melting point [°C]	SMILES	pest or weed control at 200 ppm [1] [%]	pest or weed control at 200 ppm (Phakopsora pachyrhizi) [%]	inhibition at 20 ppm [2] [%]	pest or weed control at 200 ppm [3] [%]
105 to 110	CCNC(=O)C(=O)c1ccc(-c2noc(C(F)(F)F)n2)cc1 [Compound 1.39, N-ethyl-2-oxo-2-[4-[5-(trifluoromethyl)-1,2,4-oxadiazol-3-yl]phenyl]acetamide]	≥ 80	≥ 80	≥ 80	≥ 80
79 to 84	C#CCNC(=O)C(=O)c1ccc(-c2noc(C(F)(F)F)n2)cc1 [Compound 1.41, 2-oxo-N-prop-2-ynyl-2-[4-[5-(trifluoromethyl)-1,2,4-oxadiazol-3-yl]phenyl]acetamide]	≥ 80	≥ 80	≥ 80	≥ 80
86 to 95	O=C(NCC1CC1)C(=O)c1ccc(-c2noc(C(F)(F)F)n2)cc1 [Compound 1.43, N-(cyclopropyl-methyl)-2-oxo-2-[4-[5-(trifluoromethyl)-1,2,4-oxadiazol-3-yl]phenyl]acetamide]	≥ 80	≥ 80	≥ 80	≥ 80
